This assay concerns the target T1, human PD-1 / PD-L1-Ig binding on Jurkat cell line over-expressing human PD-1 (Jurkat-PD-1) (Homo sapiens, UniProt Q15116).
T1 construct: expressed in transfected cells; host or cells: Jurkat
The assay is described as follows: Jurkat-PD-1 Cell Binding High-Content Screening Assay (CBA). Format: cell-based. The gist of the method:
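Read-out: high-content imaging of PE-tagged PD-L1-Ig bound to Jurkat cells overexpressing human PD-1, after fixation with 4% paraformaldehyde and Hoechst 33342 nuclear staining. Ligand was used at 20 nM final for 1 hour, after a 2 h compound exposure at 37° C in serum-containing DMEM.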

The mark [1] stands for this setting: Jurkat-PD-1 cells, PE-labeled PD-L1-Ig 20 nM final; read-out: Jurkat HPD1_PDL1 IC50.

Molecules are shown by their SMILES. Like-named read-outs stand apart in the source and are kept apart here. Where a SMILES comes first, the peptide text is derived from it. Bridges are numbered along the chain shown (N, C = ends). [ ]: non-standard residue; d: D form. The star is where a group is joined. ξ: configuration not given here. Phe(3-CF3) = N[C@@H](Cc1cccc(C(F)(F)F)c1)C(=O)O; Ala(morpholin-4-yl) = N[C@@H](CN1CCOCC1)C(=O)O; Phe(4-COOH) = N[C@@H](Cc1ccc(C(=O)O)cc1)C(=O)O; Phe(2,4-Cl2) = N[C@@H](Cc1ccc(Cl)cc1Cl)C(=O)O; Bip = N[C@@H](Cc1ccc(-c2ccccc2)cc1)C(=O)O; Phe(3-Me) = Cc1cccc(C[C@H](N)C(=O)O)c1; Ala(cPent) = N[C@@H](CC1CCCC1)C(=O)O; Bta = N[C@@H](Cc1csc2ccccc12)C(=O)O; Gly(cPent) = N[C@H](C(=O)O)C1CCCC1; Cha = N[C@@H](CC1CCCCC1)C(=O)O; Cit = NC(=O)NCCC[C@H](N)C(=O)O; Ile(3ξ) = CCC(C)[C@H](N)C(=O)O; Thr(3ξ) = CC(O)[C@H](N)C(=O)O; Carboxymethyl = O=C(O)C*; Orn = NCCC[C@H](N)C(=O)O; Dab = NCC[C@H](N)C(=O)O; Abu = CC[C@H](N)C(=O)O; Dap = NC[C@H](N)C(=O)O; Propargyl = C#CC*

T1 sequence (Q15116 25-288): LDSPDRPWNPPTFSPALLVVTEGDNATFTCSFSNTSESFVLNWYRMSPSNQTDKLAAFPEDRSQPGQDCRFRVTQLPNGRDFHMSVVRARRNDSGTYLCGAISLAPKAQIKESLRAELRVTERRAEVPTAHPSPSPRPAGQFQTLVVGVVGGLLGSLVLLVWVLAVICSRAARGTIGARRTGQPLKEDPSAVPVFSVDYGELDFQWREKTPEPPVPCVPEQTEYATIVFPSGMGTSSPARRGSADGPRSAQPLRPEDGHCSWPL

The IC50 is the concentration that inhibits the measured activity by half. As to `CC(C)C[C@H]1NC(=O)[C@H](CCCN)NC(=O)[C@H](Cc2ccc(C(=O)O)cc2)NC(=O)[C@H](Cc2ccc(-c3ccccc3)cc2)NC(=O)[C@H](Cc2csc3ccccc23)NC(=O)[C@H](Cc2cccc(C(F)(F)F)c2)NC(=O)[C@H](CC(=O)O)NC(=O)[C@H](Cc2ccc(C(=O)O)cc2)NC(=O)[C@H](CN2CCOCC2)NC(=O)CSC[C@@H](C(=O)N[C@@H](CCN)C(N)=O)NC(=O)[C@H](CCC(=O)O)NC(=O)[C@H](C(C)C)NC(=O)[C@H](CC2CCCCC2)NC(=O)[C@H](CCN)NC1=O` [Example 2739] ({CH2CO}-[Ala(morpholin-4-yl)][Phe(4-COOH)]D[Phe(3-CF3)][Bta][Bip][Phe(4-COOH)][Orn][dL][Dab][Cha]VEC[Dab]-NH2; thioether N-14), under setting [1], the IC50 is 3.2 nM.
Turning to `C#CCOc1ccc(C[C@@H]2NC(=O)[C@H](Cc3ccc(-c4ccccc4)cc3)NC(=O)[C@H](Cc3ccc(OCC(=O)O)cc3)NC(=O)[C@H](Cc3cccc(C)c3)NC(=O)[C@H](CC(=O)O)NC(=O)[C@H](Cc3ccc(OCC(=O)O)cc3)NC(=O)[C@H](CC)NC(=O)CSC[C@@H](C(=O)N[C@@H](CCN)C(N)=O)NC(=O)[C@H](CCC(=O)O)NC(=O)[C@H](C(C)C)NC(=O)[C@H](CC3CCCCC3)NC(=O)[C@H](CCN)NC(=O)[C@@H](CC(C)C)NC(=O)[C@H](CCCN)NC2=O)cc1` [Compound 1843] ({CH2CO}-[Abu]Y(Carboxymethyl)D[Phe(3-Me)]Y(Carboxymethyl)[Bip]Y(Propargyl)[Orn][dL][Dab][Cha]VEC[Dab]-NH2; thioether N-14), the IC50 under setting [1] came to 8.3 nM.
For the molecule `CC(C)C[C@H]1NC(=O)[C@H](CCCN)NC(=O)[C@H](CCC(=O)O)NC(=O)[C@H](Cc2ccc(-c3ccccc3)cc2)NC(=O)[C@H](C(C)C)NC(=O)[C@H](Cc2c[nH]c3ccccc23)NC(=O)[C@H](CC(=O)O)NC(=O)[C@H](Cc2ccc(OCC(=O)O)cc2)NC(=O)[C@H](CN)NC(=O)CSC[C@@H](C(=O)N[C@@H](C)C(N)=O)NC(=O)[C@H]([C@@H](C)O)NC(=O)[C@H](C(C)C)NC(=O)[C@H](Cc2ccc(Cl)cc2Cl)NC(=O)[C@H](CCN)NC1=O` [Compound 1478] ({CH2CO}-[Dap]Y(Carboxymethyl)DWV[Bip]E[Orn][dL][Dab][Phe(2,4-Cl2)]VTCA-NH2; thioether N-14), under setting [1], the half-maximal inhibitory concentration (IC50) worked out at 120 nM.
Regarding `CCC(C)[C@@H]1NC(=O)[C@H](Cc2ccc(-c3ccccc3)cc2)NC(=O)[C@H](C2CCCC2)NC(=O)[C@H](Cc2c[nH]c3ccccc23)NC(=O)[C@H](CC(=O)O)NC(=O)[C@H](Cc2ccc(OCC(=O)O)cc2)NC(=O)[C@H](C(C)O)NC(=O)CSC[C@@H](C(=O)N[C@@H](CC(N)=O)C(=O)O)NC(=O)[C@H](CO)NC(=O)[C@H](C(C)C)NC(=O)[C@H](CC(C)C)NC(=O)[C@H](CCN)NC(=O)[C@@H](CC(C)C)NC(=O)[C@H](CCCN)NC1=O` (stereo partly drawn) [Compound 2578] ({CH2CO}-[Thr(3ξ)]Y(Carboxymethyl)DW[Gly(cPent)][Bip][Ile(3ξ)][Orn][dL][Dab]LVSCN-OH; thioether N-14), the IC50 (read-out: Jurkat HPD1_PDL1 IC50; Jurkat-PD-1 cells, PE-labeled PD-L1-Ig 20 nM final) is 24.3 nM.
For `CC(C)C[C@H]1NC(=O)[C@H](CCCN)NC(=O)[C@H](CCCNC(N)=O)NC(=O)[C@H](Cc2ccc(-c3ccccc3)cc2)NC(=O)[C@H](CC2CCCC2)NC(=O)[C@H](Cc2c[nH]c3ccccc23)NC(=O)[C@H](CC(=O)O)NC(=O)[C@H](Cc2ccc(OCC(=O)O)cc2)NC(=O)[C@H](CN)NC(=O)CSC[C@@H](C(=O)N[C@@H](C)C(N)=O)NC(=O)[C@H]([C@@H](C)O)NC(=O)[C@H](C(C)C)NC(=O)[C@H](CC2CCCCC2)NC(=O)[C@H](CCN)NC1=O` [Compound 1353] ({CH2CO}-[Dap]Y(Carboxymethyl)DW[Ala(cPent)][Bip][Cit][Orn][dL][Dab][Cha]VTCA-NH2; thioether N-14), under setting [1], the IC50 was found to be 10.9 nM.

The values are drawn from patent US20250163104A1, “MACROCYCLIC IMMUNOMODULATORS” (priority 2021, published 2025).
